Experimental findings from patent US11214835B1, “Methods and compositions for diagnosis and management of neurodegerative diseases” (UNIVERSITY OF SOUTH FLORIDA, priority 2017, dated 2022) are described below.

The test system of data set [1] is GAS5. As to the kind of experiment: GAS5 levels in DM adipocytes by SYBR Green qPCR. The format is cell-based, human. The following applies: 20 nM, 24 hours. The protocol: DM adipocytes were treated with G5-1397 (20 nM) for about 24 hours. GAS5 levels were measured using SYBR Green qPCR.
Depletion of GAS5 decreases glucose uptake: Adipose tissue is the primary target for insulin-mediated glucose uptake. […] To maintain reproducibility over a larger number of experiments, adipose stem cells derived from normal or diabetic patients were purchased from Zenbio (BMI 20-24, Nondiabetic HbA1C 5.9 (hereafter referred as NDM); T2DM HbA1c 8.5 (hereafter referred as DM)). The adipose stem cells (ASC) were differentiated in vitro to mature adipocytes and used in experiments. GAS5 siRNA (10 nM, Ambion 332778, validated; scrambled siRNA as control) was transfected in NDM pre-adipocytes for 48 h, differentiated to mature NDM adipocytes for 8 days and knockdown confirmed by GAS5 SYBR Green qPCR. We determined the effect of GAS5 depletion on glucose uptake by NDM adipocytes. Cells were serum starved, 10 nM insulin was added to cells for 30 minutes and [^3H]-deoxy-2-D-Glucose uptake was measured. Results indicated a decrease in glucose uptake in GAS5 depleted NDM adipocytes ***p<0.001, highly significant using two-tailed students t-test.
Compound NPG5-C86 can increase GAS5 levels in diabetic adipocytes: Next, it was evaluated whether NPG5-C86 could stabilize GAS5 in diabetic adipocytes. […] GAS5 levels were measured using SYBR Green qPCR.

The test system of data set [2] is NEAT1, MALAT1. As to the kind of experiment: Levels of other lncRNAs in neurons by qPCR (specificity). The data set is classed as cell-based, mouse. (Real-time PCR tracks product formation cycle by cycle.)
Data set [3] deals with neuronal cells. Description: WST-1 cellular toxicity assay (Roche). The data set is classed as cell-based.
The subject of data set [4] is GAS5. As to the kind of experiment: Uptake and GAS5 levels in primary neuronal cells (NC) by qPCR. The format is cell-based, mouse. The note with it: 10 nM.
Data set [5] deals with GAS5. As to the kind of experiment: Hippocampal GAS5 levels after intranasal administration to C57BL/6 mice. The data set is classed as in vivo, mouse. The note with it: 10 nM in 10 μl, about 48 h. From the text: (§1) Separately, NPG567 or other compounds can be administered by intranasal delivery (APP/PS1 beginning at either 6 months of age (preventive) or 12 months of age (therapeutic); dose repeated alternate days; Tg4510 beginning at either 3 months of age (preventive) or 8 months of age (therapeutic); alternate days. See FIG. 25B for a schematic of the experimental protocol. The treatment efficacy for the two modes of delivery at timeframes as shown in FIGS. 25A and 25B and described herein. Intranasal delivery is a noninvasive method that bypasses the blood-brain barrier and delivers the drug to the brain and the spinal cord, thereby avoiding any systemic side effects. […] Brain tissue was harvested after about 48 h.

The subject of data set [6] is C57BL/6 mice. As to the kind of experiment: Intranasal administration to C57BL/6 mice: brain uptake and toxicity. The following applies: 10 nM in 10 μl. The data set is classed as in vivo, mouse. The protocol: Brain tissue was harvested after about 48 h.
as §1

SMILES strings stand for the structures.

Consider `CC(C)C[C@H]1CN(C(=O)CC2CC2)CC(=O)N[C@@H](CCCCN)CN(C(=O)CCc2ccccc2)CC(=O)N[C@@H](Cc2ccccc2)CN(CC(N)=O)C(=O)CCSCc2ccc(cc2)C(=O)N[C@@H](Cc2ccccc2)CN(C(=O)CC2CC2)CC(=O)N1` [Formula G5-1397], for which the “GAS5 levels in DM adipocytes” value in data set [1] was “substantially increases GAS5 levels”.

For `NCCCC[C@H]1CN(C(=O)CCc2ccccc2)CC(=O)N[C@@H](CCC(=O)O)CN(CC(N)=O)C(=O)CCSCc2ccc(cc2)C(=O)N[C@@H](CCC(=O)O)CN(C(=O)CCC(=O)O)CC(=O)N[C@@H](CCCCN)CN(C(=O)CCCN)CC(=O)N1` [NPG567], the “levels of other lncRNAs NEAT1, MALAT1 present in neurons” value in data set [2] (10 nM, NC) is “did not affect”. Further, the specificity entry in data set [2] (in neurons) was “shows specificity”. In addition, the cellular toxicity result in data set [3] (WST-1 assay (Roche)) was “does not cause cellular toxicity”. Also, the toxicity to cells result in data set [3] (in neurons) is “not toxic to cells”. Moreover, the “uptake by NC” value in data set [4] (primary neuronal cells) is reported as “efficiently taken up by NC”. The “GAS5 levels in NC” value in data set [4] (qPCR, control set as reference) is “increase GAS5”. Besides, the “GAS5 levels in the hippocampus” value in data set [5] is “increased GAS5 levels in the hippocampus”. Also, the “toxicity to the animals” value in data set [6] (C57BL/6 mice) is on record as “not toxic to the animals”. Also, the “blood-brain barrier crossing and brain uptake” value in data set [6] (fluorescein-labeled, 14 week C57BL/6 mice, brain harvested after about 48 h) is “crossed the blood-brain barrier and taken up by the brain”.
